From patent US11761894B2, “Silicon-rhodamine fluorescent probe containing hydrophobic group and use thereof” (AJOU UNIVERSITY INDUSTRY—ACADEMIC COOPERATION FOUNDATION, priority 2019, dated 2023) come the findings set out here.

Series [1] in a line: Photophysical properties (excitation/emission wavelength, absolute quantum yield, fluorescence intensity in PBS). The class given is physicochemical. The procedure:
All reactions were carried out under an atmosphere of nitrogen or argon in air-dried glassware with magnetic stirring. Air- and/or moisture-sensitive liquids were transferred with syringe. Organic solutions were concentrated by rotary evaporation at 25-60° C. at 15-30 torr. All solvents and common materials were purchased from suppliers and used without further purification. Column chromatography was carried out as “Flash Chromatography” using Biotage MPLC machine. ^1H NMR and ^13C NMR data were recorded on an JEOL ECZ-600R Magnetic Resonance System (600 MHz) in Ajou University. Recorded shifts are reported in parts per million (6): Chemical shift, multiplicity (s=singlet, d=doublet, t=triplet, q=quartet, m=multiplet, br=broad), coupling constant (J, Hz) and integration. Low resolution mass spectrometry (LRMS) was obtained by LC/MS system, Finnigan MSQplus Surveyer (Thermo Scientific) or 6120 Quadrupole LC/MS (Agilent Technologies). The progress of reaction was monitored using thin layer chromatography (TLC) (silica gel 60, F254 0.25 mm), and components were visualized by observation under UV light (254 and 365 nm) or by treating the TLC plates with Phosphonolybdic acid (PMA), KMnO4, or ninhydrin followed by heating. Cell culture reagents including fatal bovine serum, culture media, and antibiotic-antimycotic solution were purchased from GIBCO. MitoTracker Green, and Hoechst were purchased from Invitrogen. The culture dish and glassbottom dish were purchased from CORNING, and SPL. All spectra experiments were performed in a 1×1 cm quartz cuvette. Fluorescence emission spectra were recorded on JASCO FP-8200 spectrofluorometer, and UV absorption spectra were recorded on JASCO V-670 spectrophotometer. Absolute quantum yield was measured by QE-2000 (Otsuka Electronics).

The subject of series [2] is HeLa, and Hep3B cells. Briefly: High-resolution live cell imaging of SiR-Mito 8 with MitoTracker green. The class given is cell-based, human. Conditions: 1 μM, 60 min. The procedure: (a) HeLa and Hep3B cells were incubated with MitoTracker Green (0.5 μM), and SiR-Mito 8 (1 μM) for 1 h. After washing 3 times with fresh media, fluorescent live cell images were acquired with LEICA DMi8 microscope. (MitoTracker green: FITC channel, SiR-Mito 8: Cy 5 channel, Scale bar: 15 μm); (b) Chang liver cells expressing mitochondrial YFP were incubated with SiR-Mito 8 (1 μM) for 1 h. After washing 3 times with fresh media, fluorescent live cell images were acquired with LEICA DMi8 microscope. (Mitochondrial-YFP: Rhodamine channel, Scale bar: 15 μm).
Mitochondrial specificity in live cells labeled with SiR-Mito 8 and MitoTracker green was examined by high-resolution imaging.
To this end, HeLa, and Hep3B cells were cultured in Dulbecco's modified eagle media (DMEM, GIBCO) containing 10% fetal bovine serum (FBS, GIBCO) and 1% penicillin (GIBCO) at 37° C. in a humidified incubator with 5% CO2. For the fluorescence microscope imaging, cells were harvested using TrypLE™ Express (GIBCO) and resuspended in fresh culture medium. Harvested cells were seeded on a confocal dish with a density of 4.0×10^4 cells/well. After 24 h incubation, cells were incubated with SiR-Mito 8 (1 μM) and Mitotracker green (0.5 uM) for 60 min. Cells were washed three times with 1×PBS and observed with inverted fluorescence microscope (DMi8, LEICA).

For series [3], the system named is Hep3B liver cancer cells vs L02 or Chang normal liver cells. Briefly: Comparison of fluorescence intensity between normal cells and cancer cells. The class given is cell-based, human. Conditions: 1 μM, 1 h. The procedure: (a) Cells were incubated with full growth media containing SiR-Mito 8 (1 μM) and Hoechst dye (0.01 μg/ml) for 1 h. The cells were washed 3 times with growth media and observed with a LEICA DMi8 fluorescent microscope. […] (b) Quantification of the fluorescence intensity of SiR-Mito 8 in L02, Chang liver and in Hep3B cells. Scale bar: 50 μm.
Therefore, the present inventors envisioned that SiR-Mito 8 could differentiate cancer cells from normal cells without involving ligand conjugation. For fluorescent tumor imaging, human liver cancer Hep3B cells and the human hepatocyte line L02 were incubated with 1.0 μM SiR-Mito 8 for 1 hour, washed three times with cell growth media, and imaged using a LEICA DMi8 fluorescence microscope.
Specifically, Hep3B human liver cancer cells were cultured in Dulbecco's modified eagle media (DMEM, GIBCO) containing 10% fetal bovine serum (FBS, GIBCO) and 1% penicillin (GIBCO), and L02 or Chang human liver normal cells were cultured in Roswell Park Memorial Institute (RPMI, CAPRICORN) 1640 with L-Glutamine containing 10% FBS (GIBCO) and 1% Penicillin (HyClone) at 37° C. in a humidified incubator with 5% CO2. For the fluorescence microscope imaging, cells were harvested using TrypLE™ Express (GIBCO) and resuspended in fresh culture medium. […] Cells were washed with cell culture media for three times and observed with inverted fluorescence microscope (DMi8, LEICA).

As to “N-(10-(5-((cyclooctylmethyl) carbamoyl)-2-methylphenyl)-7-(dimethylamino)-5,5-dimethyldibenzo[b,e]silin-3(5H)-ylidene)-N-methylmethanaminium [SiR-Mito 8]”, in series [1], the “Em (emission wavelength)” value was 668 nm and the “Ex (excitation wavelength)” value is given as 651 nm. In addition, the “Φ (quantum yield)” value in series [1] (absolute quantum yield) amounted to 0.33. Also, in series [2], the “Mitochondrial specificity in live cells (co-expression with MitoTracker green)” value is “highly co-expressed”. The “Fluorescence intensity in cancer cells versus normal cells” value in series [3] is listed as “higher fluorescence intensity than normal cells”.
